From ChEMBL document CHEMBL5143593 (Eur J Med Chem, 2022)
Activity calls are given as the source filed them. The calls are words filed in the database; no cut-off is given here.

Tests used:
[1] = molecular target: T1, 5-hydroxytryptamine receptor 3A (Cavia porcellus, UniProt O70212); assay: Antagonist activity at 5-HT3 receptor in guinea-pig ileum assessed as inhibition of 5HT-induced contraction; type: tissue-based
T1 sequence (O70212 whole entry): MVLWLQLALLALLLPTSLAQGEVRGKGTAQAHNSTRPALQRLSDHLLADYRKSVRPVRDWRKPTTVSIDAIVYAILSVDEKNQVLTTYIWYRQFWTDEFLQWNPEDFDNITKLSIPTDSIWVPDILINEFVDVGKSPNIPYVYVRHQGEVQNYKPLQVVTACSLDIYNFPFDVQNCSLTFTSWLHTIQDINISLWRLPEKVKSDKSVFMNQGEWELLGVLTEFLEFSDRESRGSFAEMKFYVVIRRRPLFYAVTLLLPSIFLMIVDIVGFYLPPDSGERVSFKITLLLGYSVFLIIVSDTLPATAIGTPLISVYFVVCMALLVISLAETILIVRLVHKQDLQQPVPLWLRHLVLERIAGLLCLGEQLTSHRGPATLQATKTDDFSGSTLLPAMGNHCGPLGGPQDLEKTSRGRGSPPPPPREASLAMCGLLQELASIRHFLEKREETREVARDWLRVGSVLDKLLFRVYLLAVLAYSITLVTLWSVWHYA

Rattus norvegicus [2] = assay: Antipsychotic activity in male Wistar rat assessed as restoration of prepulse inhibition of acoustic startle response at 1 mg/kg, ip; type: functional, organism-based
[3] = Cytotoxicity against HEK293 cells measured after 24 hrs by MTT assay; type: toxicity, cell-based; conditions: human
Rattus norvegicus [4] = assay: Antipsychotic activity in male Wistar rat assessed as inhibition of amphetamine-stimulated locomotor activity at 1 mg/kg, ip; type: functional, organism-based
[5] = molecular target: 5-hydroxytryptamine receptor 2A (Homo sapiens, UniProt P28223); assay: Displacement of [3H]-ketanserin from human 5-HT2A receptor expressed in CHO-K1 cells measured after 1.5 hrs by Microbeta plate reader method; type: cell-based
[6] = Permeability of compound at pH 7.4 by PAMPA assay
[7] = molecular target: T2, 5-hydroxytryptamine receptor 3A (Homo sapiens) (UniProt P46098); assay: Competitive binding affinity towards 5-HT3 receptor (unknown origin); conditions: filed as antagonist
T2 sequence (whole entry): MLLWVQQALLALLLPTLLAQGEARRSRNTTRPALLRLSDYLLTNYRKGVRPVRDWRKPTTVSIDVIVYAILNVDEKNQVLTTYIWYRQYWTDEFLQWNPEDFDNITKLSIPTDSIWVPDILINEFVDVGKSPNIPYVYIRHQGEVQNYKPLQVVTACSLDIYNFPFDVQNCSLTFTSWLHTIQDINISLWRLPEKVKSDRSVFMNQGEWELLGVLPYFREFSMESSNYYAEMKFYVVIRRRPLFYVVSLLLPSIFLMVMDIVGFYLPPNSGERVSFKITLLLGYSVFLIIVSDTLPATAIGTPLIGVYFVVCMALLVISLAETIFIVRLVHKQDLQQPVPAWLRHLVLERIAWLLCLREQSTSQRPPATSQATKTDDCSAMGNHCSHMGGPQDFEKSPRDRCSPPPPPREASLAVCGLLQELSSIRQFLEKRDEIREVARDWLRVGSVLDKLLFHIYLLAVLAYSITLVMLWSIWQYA

[8] = Cytotoxicity against CHO-K1 cells measured after 24 hrs by MTT assay; type: toxicity, cell-based, Cricetulus griseus; conditions: Chinese hamster
D(2) dopamine receptor = D(2) dopamine receptor (Homo sapiens, UniProt P14416); assay: Displacement of [3H]-raclopride from human D2L receptor expressed in HEK293 cells measured after 1 hr by Microbeta plate reader method; type: cell-based
[9] = molecular target: T3, 5-hydroxytryptamine receptor 1A (Homo sapiens, UniProt P08908); assay: Displacement of [3H]-8-OH-DPAT from human 5-HT1A receptor expressed in HEK293 cells measured after 1 hr by Microbeta plate reader method; type: cell-based
T3 sequence (P08908 whole entry): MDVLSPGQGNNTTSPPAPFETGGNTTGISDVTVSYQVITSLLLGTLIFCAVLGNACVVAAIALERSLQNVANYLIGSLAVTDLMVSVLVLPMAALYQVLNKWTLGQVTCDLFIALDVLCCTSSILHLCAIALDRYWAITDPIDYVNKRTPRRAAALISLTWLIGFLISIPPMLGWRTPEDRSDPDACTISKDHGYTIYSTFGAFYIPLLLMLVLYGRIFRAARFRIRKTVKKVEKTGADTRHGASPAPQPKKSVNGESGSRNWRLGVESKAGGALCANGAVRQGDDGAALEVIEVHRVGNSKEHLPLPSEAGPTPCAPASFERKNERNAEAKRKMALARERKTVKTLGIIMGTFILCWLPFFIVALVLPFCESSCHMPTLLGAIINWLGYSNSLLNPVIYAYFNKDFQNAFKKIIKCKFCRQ

[10] = molecular target: 5-hydroxytryptamine receptor 7 (Homo sapiens, UniProt P34969); assay: Displacement of [3H]-5-CT from human 5-HT7b receptor expressed in HEK293 cells measured after 1 hr by Microbeta plate reader method; type: cell-based
[11] = MRT in male Wistar rat brain at 20 mg/kg, ip; type: ADME, organism-based
[12] = Cmax in male Wistar rat plasma at 20 mg/kg, ip; type: ADME, organism-based; design: dose 20 mg/kg, route ip
[13] = Cmax in male Wistar rat brain at 20 mg/kg, ip; type: ADME, organism-based; design: dose 20 mg/kg, route ip
[14] = AUC in male Wistar rat brain at 20 mg/kg, ip; type: ADME, organism-based; design: dose 20 mg/kg, route ip; conditions: in vivo
[15] = Tmax in male Wistar rat brain at 20 mg/kg, ip; type: ADME, organism-based
[16] = MRT in male Wistar rat plasma at 20 mg/kg, ip; type: ADME, organism-based
[17] = Toxicity in male Wistar rat assessed as abnormalities in kidney at 20 mg/kg, ip; type: organism-based; conditions: in vivo
[18] = Toxicity in male Wistar rat assessed as abnormalities in liver at 20 mg/kg, ip; type: organism-based; conditions: in vivo
[19] = AUC in male Wistar rat plasma at 20 mg/kg, ip; type: ADME, organism-based; design: dose 20 mg/kg, route ip; conditions: in vivo
[20] = Toxicity in male Wistar rat assessed as abnormalities (breathing changes, low activity and narrowed eyes) at 20 mg/kg, ip measured after 4 hrs; type: organism-based; conditions: in vivo
[21] = Tmax in male Wistar rat plasma at 20 mg/kg, ip; type: ADME, organism-based
[22] = Toxicity in male Wistar rat assessed as abnormalities in blood plasma at 20 mg/kg, ip; type: organism-based; conditions: in vivo
[23] = Half-life in male Wistar rat brain at 20 mg/kg, ip; type: ADME, organism-based
[24] = Half-life in male Wistar rat plasma at 20 mg/kg, ip; type: ADME, organism-based
[25] = Toxicity in male Wistar rat assessed as maximum tolerated dose administered intraperitoneally; conditions: in vivo, route ip
[26] = Toxicity in male Wistar rat assessed as abnormalities (low activity and narrowed eyes) at 27.8 mg/kg, ip measured after 24 hrs; type: organism-based; conditions: in vivo
[27] = Toxicity in male Wistar rat assessed as abnormalities (breathing changes, low activity, abdominal pain during manipulation, narrowed eyes and provoked vocalization) at 27.8 mg/kg, ip; type: organism-based; conditions: in vivo
[28] = Toxicity in male Wistar rat assessed as effect on AST level at 2 mg/kg, ip; type: organism-based; conditions: in vivo
[29] = Tmax in male Wistar rat brain at 2 mg/kg, ip; type: ADME, organism-based
[30] = Cmax in male Wistar rat plasma at 2 mg/kg, ip; type: ADME, organism-based; design: dose 2 mg/kg, route ip
[31] = Toxicity in male Wistar rat assessed as effect on creatine kinase level in plasma at 2 mg/kg, ip; type: organism-based; conditions: in vivo
[32] = AUC in male Wistar rat brain at 2 mg/kg, ip; type: ADME, organism-based; design: dose 2 mg/kg, route ip; conditions: in vivo
[33] = AUC in male Wistar rat plasma at 2 mg/kg, ip; type: ADME, organism-based; design: dose 2 mg/kg, route ip; conditions: in vivo
[34] = Half-life in male Wistar rat brain at 2 mg/kg, ip; type: ADME, organism-based
[35] = MRT in male Wistar rat brain at 2 mg/kg, ip; type: ADME, organism-based
[36] = MRT in male Wistar rat plasma at 2 mg/kg, ip; type: ADME, organism-based
[37] = Toxicity in male Wistar rat assessed as adverse effects at 2 mg/kg, ip; type: organism-based; conditions: in vivo
[38] = Tmax in male Wistar rat plasma at 2 mg/kg, ip; type: ADME, organism-based
[39] = Half-life in male Wistar rat plasma at 2 mg/kg, ip; type: ADME, organism-based
[40] = Cmax in male Wistar rat brain at 2 mg/kg, ip; type: ADME, organism-based; design: dose 2 mg/kg, route ip
[41] = Toxicity in male Wistar rat assessed as effect on ALT level at 2 mg/kg, ip; type: organism-based; conditions: in vivo
[42] = Toxicity in male Wistar rat assessed as abnormalities in kidney at 2 mg/kg, ip; type: organism-based; conditions: in vivo
[43] = Toxicity in male Wistar rat assessed as abnormalities in liver at 2 mg/kg, ip; type: organism-based; conditions: in vivo

5-hydroxytryptamine receptor 2A, sequence (P28223 whole entry): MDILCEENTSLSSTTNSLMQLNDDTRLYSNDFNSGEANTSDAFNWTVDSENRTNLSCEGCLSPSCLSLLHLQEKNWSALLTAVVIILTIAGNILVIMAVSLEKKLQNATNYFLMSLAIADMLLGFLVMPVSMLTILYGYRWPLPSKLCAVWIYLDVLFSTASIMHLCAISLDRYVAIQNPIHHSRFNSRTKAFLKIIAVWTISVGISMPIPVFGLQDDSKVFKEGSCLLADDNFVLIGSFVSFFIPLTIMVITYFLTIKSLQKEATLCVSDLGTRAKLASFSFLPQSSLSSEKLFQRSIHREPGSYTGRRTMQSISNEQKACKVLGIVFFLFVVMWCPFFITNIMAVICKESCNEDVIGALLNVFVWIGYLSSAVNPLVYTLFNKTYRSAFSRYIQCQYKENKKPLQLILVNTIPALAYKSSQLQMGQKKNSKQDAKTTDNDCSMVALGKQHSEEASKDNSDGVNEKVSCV
D(2) dopamine receptor, sequence (P14416 whole entry): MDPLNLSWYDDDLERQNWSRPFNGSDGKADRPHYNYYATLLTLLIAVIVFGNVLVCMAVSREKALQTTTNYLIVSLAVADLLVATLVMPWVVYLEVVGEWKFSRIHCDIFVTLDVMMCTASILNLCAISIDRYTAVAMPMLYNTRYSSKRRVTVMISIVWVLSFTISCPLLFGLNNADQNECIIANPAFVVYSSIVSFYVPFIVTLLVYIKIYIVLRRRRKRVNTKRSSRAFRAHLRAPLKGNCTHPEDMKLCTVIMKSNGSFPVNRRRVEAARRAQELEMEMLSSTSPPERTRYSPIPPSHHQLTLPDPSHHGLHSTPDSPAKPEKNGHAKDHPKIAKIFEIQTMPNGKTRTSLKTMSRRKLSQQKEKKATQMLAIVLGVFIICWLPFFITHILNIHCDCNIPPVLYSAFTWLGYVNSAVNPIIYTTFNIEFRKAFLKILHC
5-hydroxytryptamine receptor 7, sequence (P34969 whole entry): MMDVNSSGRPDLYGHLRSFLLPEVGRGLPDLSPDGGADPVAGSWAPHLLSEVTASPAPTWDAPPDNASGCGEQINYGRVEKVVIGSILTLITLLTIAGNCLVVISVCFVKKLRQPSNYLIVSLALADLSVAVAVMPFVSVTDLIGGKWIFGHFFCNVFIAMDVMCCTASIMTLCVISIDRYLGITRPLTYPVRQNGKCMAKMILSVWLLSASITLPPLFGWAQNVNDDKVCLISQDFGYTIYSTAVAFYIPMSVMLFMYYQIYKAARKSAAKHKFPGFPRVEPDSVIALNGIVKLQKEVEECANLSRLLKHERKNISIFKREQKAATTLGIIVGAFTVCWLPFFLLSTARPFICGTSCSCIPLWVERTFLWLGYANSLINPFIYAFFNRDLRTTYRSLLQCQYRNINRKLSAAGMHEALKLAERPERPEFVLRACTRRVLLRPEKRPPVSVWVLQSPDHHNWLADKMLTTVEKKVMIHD

Compound	IC50 [1] [µM]	Ki [5] [µM]	Papp [6] [×10⁻⁶ cm/s]	IC50 at 24 h [8] [µM]	Ki (D(2) dopamine receptor) [µM]	further results
O=C1CCc2ccc(OCCCCN3CCN(c4cccc(Cl)c4Cl)CC3)cc2N1 [ARIPIPRAZOLE]	630					Activity (Rattus norvegicus [2]): Active; IC50 at 24 h [3]: > 100 µM; Activity (Rattus norvegicus [4]): Active
N#Cc1cccnc1N1CCN(CCCOc2ccc3c(c2)NC(=O)CC3)CC1		5.3	14	350	0.081	pKb [7]: 5
O=C(c1ccccn1)N1CCN(CCCN2CCN(c3cccc(Cl)c3Cl)CC2)CC1		2.3	17	290	0.082	pKb [7]: 5.3
Cn1nc(C(=O)N2CCN(CCN3CCN(c4cccc(Cl)c4Cl)CC3)CC2)c2ccccc21	1	1.8	6.8	45	0.13	
Cc1nccn1CC1CCc2c(c3ccccc3n2C)C1=O (stereo not drawn) [ONDANSETRON]					> 10	Ki [9]: > 10 µM; pKb [7]: 7.36; Ki [10]: > 1 µM
COc1ccccc1N1CCN(CCCN2CCN(c3ncccc3C#N)CC2)CC1		23	20			MRT [11]: 57.8 min; Cmax [12]: 3210 nM; Cmax [13]: 3520 nM; Ki [9]: 0.018 µM; AUC [14]: 272930.4 nmol·min/L; Tmax [15]: 5 min; MRT [16]: 61.4 min; Ki [10]: 2.7 µM; Activity [17]: Non-Toxic; Activity [18]: Non-Toxic; AUC [19]: 91958.8 nmol·min/L; Activity [20]: Toxic; Tmax [21]: 5 min; Activity [22]: Non-Toxic; half-life [23]: 26.7 min; half-life [24]: 48.8 min; MTD [25]: 2.78 mg/kg; Activity [26]: Toxic; Activity [27]: Toxic
O=C1CCc2ccc(OCCCCN3CCN(C(=O)c4ccccn4)CC3)cc2N1	> 10	6.9	9.4	89	0.009	
COc1ccccc1N1CCN(CCCNC(=O)c2cnccn2)CC1		35.8	25	> 500	0.86	
N#Cc1cccnc1N1CCN(CCN2CCN(c3cccc(Cl)c3Cl)CC2)CC1	1	1.3	7.9	220	0.21	
COc1ccccc1N1CCN(CCN2CCN(c3ncccc3C#N)CC2)CC1	> 10		14	780	0.13	
O=C(c1ccccc1)N1CCN(CCCN2CCN(c3cccc(Cl)c3Cl)CC2)CC1	> 3	1.7	23	110	0.12	
N#Cc1cccnc1N1CCN(CCCN2CCN(c3cccc(Cl)c3Cl)CC2)CC1	0.3	0.47	5.9			Activity [28]: Non-Toxic; Tmax [29]: 60 min; Ki [9]: 0.019 µM; Cmax [30]: 97.9 nM; Activity [31]: Non-Toxic; Ki [10]: 0.57 µM; AUC [32]: 88483.21 nmol·min/L; AUC [33]: 10886.71 nmol·min/L; half-life [34]: 263 min; MRT [35]: 459 min; MRT [36]: 228 min; Activity [37]: Non-Toxic; Tmax [38]: 3 min; half-life [39]: 100 min; Cmax [40]: 266 nM; MTD [25]: 0.2 mg/kg; Activity [41]: Non-Toxic; Activity [42]: Non-Toxic; Activity [43]: Non-Toxic
COc1ccccc1N1CCN(CCCN2CCN(C(=O)c3ccccc3)CC2)CC1		30	11	1300	0.26	
COc1ccccc1N1CCN(CCN2CCN(C(=O)c3nn(C)c4ccccc34)CC2)CC1	3	8.3	13	780	0.63	
COc1ccccc1N1CCN(CCCN2CCN(C(=O)c3ccccn3)CC2)CC1			8.7	1900	0.59	
N#Cc1cccnc1N1CCN(CCCCOc2ccc3c(c2)NC(=O)CC3)CC1		7.4	12	1000	2.1	
N#Cc1cccnc1N1CCN(CCCN2CCN(c3ccccc3)CC2)CC1	> 3	13	25	770	0.77	
CN1CCN(C2=Nc3cc(Cl)ccc3Nc3ccccc32)CC1 [CLOZAPINE]	110					
COc1ccc(N2CCN(CCCN3CCN(C(=O)c4ccccc4)CC3)CC2)cc1	> 10	30	23	> 400	5.5	
O=C(c1ccccc1)N1CCN(CCCN2CCN(c3ccccc3)CC2)CC1		6.5	20	1300	2.1	
CN(C)CCCN1c2ccccc2Sc2ccc(Cl)cc21 [CHLORPROMAZINE]			9.6			
COc1ccc(N2CCN(CCCN3CCN(c4ncccc4C#N)CC3)CC2)cc1	3	40	24	360	1.5	
CN1CCN(c2nc3ncccc3cc2C#N)CC1						Kb ([1]; read-out: pA2 (converted)): 0.0398 µM
NS(=O)(=O)c1cc2c(cc1Cl)N=CNS2(=O)=O [CHLOROTHIAZIDE]			0.3			
